Legend:
[1] = tested on: aorta of insulin-resistant rats; assay: Vasorelaxing effect in vitro on isolated aorta of insulin-resistant (fructose-rich diet) rats, precontracted with phenylephrine, with or without LNNA; assay type: cell-based, rat; settings: for % Relaxation, Aorta with LNNA / % Relaxation, Aorta Without LNNA: phenylephrine 10 μM precontracted, percentage with respect to non insulin-resistant controls; for vasorelaxing effect in conditions of experimental diabetes (in words): aorta of insulin-resistant rats, in the presence and in absence of LNNA
Method: To evaluate the strengthening effect of the drugs of the invention on the antidiabetic activity of insulin, animals (rats) are treated with a fructose rich diet (Am. J. Physiol. 275, R788-R792, 1998). In this way an insulinic resistance is induced in the animals.
The pharmacological test is a test in vitro and consists in determining the vasorelaxing activity induced by the products of the invention, measured on an isolated vessel (aorta) taken from animals treated as above mentioned. The test in vitro is carried out both in the presence and in absence of LNNA (N-nitro-L-Arginine), which is an irreversible inhibitor of the nitric oxide synthethases, to verify if the vasorelaxing effect depends on the protective endogenous substances (nitric oxide).
The capability of the compounds of the invention to exert a vasorelaxing effect both in the presence and in absence of vasoprotective substances in such conditions of experimental diabetes, (animals with a fructose rich diet, and treated with or without LNNA), is an index which allows to evaluate the antidiabetic action of the tested compound.
In the pharmacological experiment isolated vessels are used, taken from rats which have developed, as said, an insulinic resistance condition induced by administering for 4 weeks a fructose rich diet.
Male Sprague Dawley rats having an average weight equal to 150-200 g were sacrificed and bled. The abdomi-nal aorta was removed and suitably prepared for determining the myorelaxing activity in vitro according to the method described by Vogel G. H. et al., Drug Discovery Evaluation-Pharmacological Assays page 32, 1996.
A part of the specimen is treated with LNNA.
The tissues are precontracted with phenylephrine (10 μM) and the relaxation was determined in the presence or in absence of the compounds of the invention or of the reference standards. […] The results are reported in Table 1 and are expressed as a percentage with respect to the vasorelaxing effect measured in the controls.

| Compound | % Relaxation, Aorta with LNNA ([1]; concentration 10^−5 M) [%] | % Relaxation, Aorta Without LNNA ([1]; concentration 10^−5 M) [%] | % Relaxation, Aorta with LNNA ([1]; concentration 10^−4 M) [%] | % Relaxation, Aorta Without LNNA ([1]; concentration 10^−4 M) [%] | vasorelaxing effect in conditions of experimental diabetes (in words) [1] | other results |
| --- | --- | --- | --- | --- | --- | --- |
| CC(=O)Oc1ccccc1C(=O)OCc1cccc(CO[N+](=O)[O-])n1.Cl [Ex. 1, 2-acetoxybenzoic acid 6-(nitroxymethyl)-2-methylpyridinyl ester hydrochloride] | 70 | 93 | – | – | – | – |
| CC(=O)Oc1ccccc1C(=O)Oc1cccc(CO[N+](=O)[O-])c1 [Ex. 2, 3-nitrooxymethylphenyl ester of the 2-acetoxybenzoic acid] | – | – | 70 | 70 | – | – |
| COc1ccc2c(c1)c(CC(=O)Oc1cccc(CO[N+](=O)[O-])c1)c(C)n2C(=O)c1ccc(Cl)cc1 [Ex. 3 comp., 1-(4-chlorobenzoyl)-5-methoxy-2-methyl-3-indolacetic acid 3′-(nitroxymethyl)phenyl ester, reference compound] | – | – | – | – | did not result active | % Relaxation, Aorta with LNNA ([1]; concentration 10^−6 M): 20%; % Relaxation, Aorta Without LNNA ([1]; concentration 10^−6 M): 20% |
| CC(=O)Oc1ccccc1C(=O)Oc1ccc(CO[N+](=O)[O-])cc1 [Ex. 6, 2-(acetyloxy)benzoic acid 4-(nitroxymethyl) phenyl ester] | 65 | 90 | – | – | – | melting point: 86 to 88 °C |
| CN(C)C(=N)N=C(N)N [Metformin, reference compound] | – | – | 30 | 90 | active only in the absence of the inhibitor of the NO synthesis | – |
